From ChEMBL document CHEMBL1201862, “PubChem BioAssay data set” (2004)
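Test compounds were applied to cells in 96-well plates for 48 hours at 5 doses. Abbreviation: GI50, concentration required for 50% inhibition of growth.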 Calls of active or inactive are those of the source. Rule as the data show it: active = GI50 up to about 1.1 µM and inactive = higher.

Columns and labels:
Experiment in all cases: NCI tumour cell line growth inhibition, 48 h
U-251 = test system: U-251
MDA-N = test system: MDA-N
HOP-92 = test system: HOP-92
BT-549 = test system: BT-549
NCI-H23 = test system: NCI-H23
HCT-15 = test system: HCT-15
MCF7 = test system: MCF7
Hs-578T = test system: Hs-578T
MDA-MB-435 = test system: MDA-MB-435
SK-OV-3 = test system: SK-OV-3
EKVX = test system: EKVX
UACC-257 = test system: UACC-257
SF-539 = test system: SF-539
HT-29 = test system: HT-29
CAKI-1 = test system: CAKI-1
DU-145 = test system: DU-145
HOP-62 = test system: HOP-62
SF-268 = test system: SF-268
T47D = test system: T47D
MDA-MB-231 = test system: MDA-MB-231

Structure (SMILES) | GI50 (U-251) | GI50 (MDA-N) | GI50 (HOP-92) | GI50 (BT-549) | GI50 (NCI-H23) | GI50 (HCT-15) [µM] | GI50 (MCF7) | GI50 (Hs-578T) | GI50 (MDA-MB-435) | GI50 (SK-OV-3) | GI50 (EKVX) | GI50 (UACC-257) | GI50 (SF-539) | GI50 (HT-29) | GI50 (CAKI-1) | GI50 (DU-145) | GI50 (HOP-62) | GI50 (SF-268) | GI50 (T47D) | GI50 (MDA-MB-231)
Nc1cccc(C2CCCc3c2[nH]c2ccccc32)c1 (stereo not given) | 14.6 µM (inactive) | 17.5 µM (inactive) | 16.9 µM (inactive) | 18.4 µM (inactive) | 19.1 µM (inactive) | 8.28 | 21.8 µM (inactive) | 16 µM (inactive) | 17.3 µM (inactive) | 23.9 µM (inactive) | 18.5 µM (inactive) | 23.9 µM (inactive) | 20.3 µM (inactive) | 14.6 µM (inactive) | 23.9 µM (inactive) | 27 µM (inactive) | 30.5 µM (inactive) | 17.2 µM (inactive) | 12.1 µM (inactive) | 15.8 µM (inactive)
[N-]=[N+]=Nc1ccc2c(c1)Sc1ccccc1N2CCCCN1CCN(C(=O)CCNC(=O)Cc2ccc(C(=O)c3ccccc3)cc2)CC1 | 4.23 µM (inactive) | 3.75 µM (inactive) | 6.71 µM (inactive) | 5.06 µM (inactive) | 4.78 µM (inactive) | 2.64 | 2.33 µM (inactive) | 17.7 µM (inactive) | 2.2 µM (inactive) | 27.9 µM (inactive) | 3.18 µM (inactive) | 4.05 µM (inactive) | 6.27 µM (inactive) | 1.98 µM (inactive) | 8.61 µM (inactive) | 4.93 µM (inactive) | 8.45 µM (inactive) | 3.84 µM (inactive) | 5.36 µM (inactive) | 4.74 µM (inactive)
COc1cc2c(cc1OC)C(=O)/C(=C/c1ccc(Cl)cc1)CC2 | > 10 µM (inactive) | > 10 µM (inactive) | > 10 µM (inactive) | > 10 µM (inactive) | > 10 µM (inactive) | > 10 | > 10 µM (inactive) | > 10 µM (inactive) | > 10 µM (inactive) | > 10 µM (inactive) | > 10 µM (inactive) | > 10 µM (inactive) | > 10 µM (inactive) | > 10 µM (inactive) | > 10 µM (inactive) | > 10 µM (inactive) | > 10 µM (inactive) | > 10 µM (inactive) | > 10 µM (inactive) | > 10 µM (inactive)
O=C1CC(Nc2ccccc2)c2c(Cl)sc(Cl)c21 (stereo not given) | 1.68 µM (inactive) | 1.65 µM (inactive) | 1.41 µM (inactive) | 2.22 µM (inactive) | 1.91 µM (inactive) | 0.767 | 1.47 µM (inactive) | 2.42 µM (inactive) | 1.52 µM (inactive) | 13.4 µM (inactive) | 1.76 µM (inactive) | 1.85 µM (inactive) | 0.527 µM (active) | 1.7 µM (inactive) | 0.65 µM (active) | 1.6 µM (inactive) | 2.57 µM (inactive) | 0.778 µM (active) | 1.48 µM (inactive) | 1.92 µM (inactive)
O=C(COc1ccc(OCC(=O)N2C(=O)CN(c3ccccc3)C2=S)cc1)N1C(=O)CN(c2ccccc2)C1=S | > 51.6 µM (inactive) | > 63.1 µM (inactive) | > 53.2 µM (inactive) | > 61.4 µM (inactive) | > 56.9 µM (inactive) | > 54.1 | > 54.3 µM (inactive) | > 64.4 µM (inactive) | > 55.3 µM (inactive) | > 54.3 µM (inactive) | > 53.6 µM (inactive) | > 54.7 µM (inactive) | > 100 µM (inactive) | > 56.9 µM (inactive) | > 57.7 µM (inactive) | > 61 µM (inactive) | > 53.2 µM (inactive) | > 59.4 µM (inactive) | > 58.3 µM (inactive) | > 50.1 µM (inactive)
COC(=O)/C=C\C(C#N)(C#N)/N=C/c1ccccc1 | 17.7 µM (inactive) | 4.44 µM (inactive) | 1.55 µM (inactive) | 5.2 µM (inactive) | 7.35 µM (inactive) | 2.92 | 2.09 µM (inactive) | 12.2 µM (inactive) | 2.33 µM (inactive) | 18.3 µM (inactive) | 12.8 µM (inactive) | 5.36 µM (inactive) | 3.78 µM (inactive) | 4.49 µM (inactive) | 2.86 µM (inactive) | 17.1 µM (inactive) | 18.5 µM (inactive) | 4.95 µM (inactive) | 1.72 µM (inactive) | 15.6 µM (inactive)
NC(Cc1ccccc1)(C(=O)O)C(=O)O | > 100 µM (inactive) | > 100 µM (inactive) | > 100 µM (inactive) | > 100 µM (inactive) | > 100 µM (inactive) | > 100 | > 100 µM (inactive) | > 100 µM (inactive) | > 100 µM (inactive) | > 100 µM (inactive) | > 100 µM (inactive) | > 100 µM (inactive) | > 100 µM (inactive) | > 100 µM (inactive) | 14.8 µM (inactive) | > 100 µM (inactive) | > 100 µM (inactive) | > 100 µM (inactive) | > 100 µM (inactive) | > 100 µM (inactive)
